Laboratory results reported in the supplement of paper PMC10307832.

Tests used:
Assay in all cases: relative viability (nuclei count vs DMSO), 5 days (fraction); higher = more cells survive
[1] = compound: CC1=C(N=C(N=C1N)[C@H](CC(=O)N)NC[C@@H](C(=O)N)N)C(=O)N[C@@H]([C@H](C2=CN=CN2)OC3C(C(C(C(O3)CO)O)O)OC4C(C(C(C(O4)CO)O)OC(=O)N)O)C(=O)N[C@H](C)[C@H]([C@H](C)C(=O)N[C@@H]([C@@H](C)O)C(=O)NCCC5=NC(=CS5)C6=NC(=CS6)C(=O)NCCC[S+](C)C)O [Bleomycin] + O=C(c1cc(Cc2n[nH]c(=O)c3ccccc23)ccc1F)N1CCN(C(=O)C2CC2)CC1 [Olaparib] (partner 8 µM); conditions: main component drawn
Outline: (§1)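 Lung cancer cell lines, seeded in 1536-well plates, were treated the following day by pin tool with a single drug or with five library-drug doses (not always all listed) in √10 steps on top of a fixed anchor-drug dose. Cells were fixed and nuclei stained in one step after 5 days, and nuclei were counted. Relative viability is the nuclei count for treated wells divided by that for vehicle wells, reported as medians of duplicate plates.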

[2] = compound: CC1=C(N=C(N=C1N)[C@H](CC(=O)N)NC[C@@H](C(=O)N)N)C(=O)N[C@@H]([C@H](C2=CN=CN2)OC3C(C(C(C(O3)CO)O)O)OC4C(C(C(C(O4)CO)O)OC(=O)N)O)C(=O)N[C@H](C)[C@H]([C@H](C)C(=O)N[C@@H]([C@@H](C)O)C(=O)NCCC5=NC(=CS5)C6=NC(=CS6)C(=O)NCCC[S+](C)C)O [Bleomycin] + Nc1nc2[nH]cc(CCc3ccc(C(=O)N[C@@H](CCC(=O)O)C(=O)O)cc3)c2c(=O)[nH]1 [Pemetrexed] (partner 0.2 µM); conditions: main component drawn
Outline: as §1

[3] = compound: COc1cc([C@@H]2c3cc4c(cc3[C@@H](O[C@@H]3O[C@@H]5CO[C@@H](C)O[C@H]5[C@H](O)[C@H]3O)[C@H]3COC(=O)[C@H]23)OCO4)cc(OC)c1O [Etoposide] + O=C(CCCCCCC(=O)Nc1ccccc1)NO [Vorinostat] (partner 1 µM)
Outline: as §1

[4] = compound: COc1cc([C@@H]2c3cc4c(cc3[C@@H](O[C@@H]3O[C@@H]5CO[C@@H](C)O[C@H]5[C@H](O)[C@H]3O)[C@H]3COC(=O)[C@H]23)OCO4)cc(OC)c1O [Etoposide] + CS(=O)(=O)N1CCN(Cc2cc3nc(-c4cccc5[nH]ncc45)nc(N4CCOCC4)c3s2)CC1 [Pictilisib] (partner 1 µM)
Outline: as §1

Cell Line	relative viability ([1]; first compound 0.01 µM)	relative viability ([1]; first compound 0.03162 µM)	relative viability ([1]; first compound 0.1 µM)	relative viability ([1]; first compound 0.3162 µM)	relative viability ([1]; first compound 1 µM)	relative viability ([2]; first compound 0.01 µM)	relative viability ([2]; first compound 0.03162 µM)	relative viability ([2]; first compound 0.1 µM)	relative viability ([2]; first compound 0.3162 µM)	relative viability ([2]; first compound 1 µM)	relative viability ([3]; first compound 0.01 µM)	relative viability ([3]; first compound 0.03162 µM)	relative viability ([3]; first compound 0.1 µM)	relative viability ([3]; first compound 0.3162 µM)	relative viability ([3]; first compound 1 µM)	relative viability ([4]; first compound 0.01 µM)	relative viability ([4]; first compound 0.03162 µM)	relative viability ([4]; first compound 0.1 µM)	relative viability ([4]; first compound 0.3162 µM)	relative viability ([4]; first compound 1 µM)
201T	0.759	0.763	0.715	0.507	0.411	0.332	0.283	0.303	0.281	0.271	0.905	1.03	0.811	0.887	0.485	0.677	0.767	0.652	0.63	0.445
A549	0.25	0.263	0.29	0.0728	0.0649	–	–	–	–	–	–	–	–	–	–	0.49	0.432	0.221	0.0914	0.0659
A-427	0.58	0.566	0.455	0.274	0.24	0.875	0.917	0.868	0.432	0.288	0.864	0.864	0.761	0.625	0.309	0.726	0.817	0.507	0.469	0.169
ABC-1	0.851	1.04	0.849	0.818	0.232	–	–	–	–	–	1.07	1.57	0.571	0.55	0.223	0.765	0.711	0.386	0.345	0.228
BEN	0.97	1.03	0.899	0.809	0.733	0.809	0.757	0.723	0.616	0.679	0.542	0.722	–	0.559	0.616	0.477	0.62	–	0.545	0.376
CAL-12T	0.416	0.375	0.217	0.177	0.135	0.729	0.482	0.31	0.186	0.156	0.798	0.782	0.724	0.403	0.213	0.508	0.438	0.323	0.391	0.258
COR-L23	0.253	0.188	0.133	0.0874	0.0995	0.191	0.203	0.193	0.153	0.146	0.48	0.487	0.352	0.214	0.13	0.733	0.726	0.401	0.418	0.122
COR-L 105	0.614	0.518	0.526	0.417	0.352	0.949	1.06	0.971	0.468	0.573	1.09	0.856	0.731	0.727	0.734	0.374	0.395	0.337	0.327	0.335
Calu-6	0.375	0.343	0.254	0.127	0.137	–	–	–	–	–	–	–	–	–	–	0.841	0.908	0.764	0.457	0.25
ChaGo-K-1	0.361	0.411	0.348	0.28	0.229	0.267	0.251	0.245	0.261	0.24	0.756	0.736	0.413	0.353	0.197	0.815	0.616	0.387	0.265	0.199
EBC-1	0.604	0.671	0.645	0.419	0.331	–	–	–	–	–	–	–	–	–	–	0.362	0.384	0.218	0.287	0.156
EKVX	0.719	0.563	0.501	0.244	0.231	0.36	0.317	0.315	0.285	0.2	0.543	0.746	0.512	0.444	0.253	0.447	0.429	0.208	0.309	0.241
EMC-BAC-2	0.35	0.428	0.404	0.324	0.221	0.416	0.4	0.419	0.476	0.324	0.636	0.428	0.239	0.153	0.139	0.511	0.515	0.413	0.27	0.164
EPLC-272H	0.407	0.237	0.183	0.0606	0.111	0.294	0.198	0.146	0.121	0.131	0.415	0.464	0.426	0.267	0.235	0.345	0.371	0.281	0.278	0.233
H3255	0.491	0.519	0.495	0.373	0.344	0.608	0.538	0.507	0.479	0.405	0.788	0.774	0.458	0.278	0.314	0.498	0.499	0.381	0.411	0.298
HARA	0.733	0.942	0.701	0.247	0.351	0.219	0.228	0.237	0.169	0.217	0.443	0.573	0.586	0.125	0.095	0.3	0.545	0.255	0.449	0.086
